# Where two headings read alike, the source gives them in different places.
# Assays:
# [1] = test system: HSC; conditions: in vivo; cited from earlier work
# [2] = test system: T cell lymphoma; conditions: T cell lymphoma/Partial remission
# Description: (§1) A sample from the subjects is collected at the time of diagnosis (“baseline sample”) and analyzed for tumor mutational burden (TMB) and microsatellite instability (MSI). Subjects are then administered a single dose of plerixafor (10-20 mg), a single dose of motixafortide (0.5-2 mg/kg), a single dose of MGTA-145 (0.0075-0.3 mg/kg), or a single dose of MGTA-145 (0.0075-0.3 mg/kg) in combination with a single dose of plerixafor (0.24 mg/kg), and blood sample collected 1-72 hours later. This blood sample (“LBYE+ sample”) is analyzed for TMB and MSI.
# (§2) The change/difference of biomarker detected in the LBYE+ sample and the baseline sample is used by a clinician to predict treatment response and/or make treatment decision.
# [3] = test system: Colon Cancer; conditions: Colon Cancer/Relapse
# Description: as §1, §2
smiles,measurement,setting,value
"c1cc(CN2CCCNCCNCCCNCC2)ccc1CN1CCCNCCNCCCNCC1 [Plerixafor, 1-{[4-(1,4,8,11-tetrazacyclotetradec-1-ylmethyl)phenyl]methyl}-1,4,8,11-tetrazacyclotetradecane]",HSC mobilization,[1],rapidly mobilize HSC within hours
same,"VAF, LBYE+ Sample Status","[2]; TET2, baseline 23.80%",20.20%
same,"Genomic variants, LBYE+ Sample Status","[2]; after intervening agent, baseline TET2",TET2
same,"TMB, LBYE+ Sample Status",[2]; baseline 0.4 m/MB,0.5 m/MB
same,"MSI, LBYE+ Sample Status",[2]; baseline Stable,Stable
same,"VAF, LBYE+ Sample Status","[3]; APC, baseline 7.80%",7.30%
same,"VAF, LBYE+ Sample Status","[3]; TP53, baseline 6.30%",6.30%
same,"TMB, LBYE+ Sample Status",[3]; baseline 0.5 m/MB,1.1 m/MB
same,"MSI, LBYE+ Sample Status",[3]; baseline Stable,Stable

# — US20240103011A1, “LIQUID BIOPSY YIELD ENHANCEMENT” (priority 2021, published 2024)
